Measurements reported in US20220064238A1, “Methods And Compositions For Modifying Transcription Factor Activity by Targeting The Human Mediator Complex Using Cell Penetrating Memetic Peptides And Methods of Treating Cancer Using The Same” (The Regents of the University of Colorado, a body corporate, priority 2020, published 2022).
Bridge positions count the residues as written; N and C are the ends. Square brackets hold non-standard residues; d marks the D form. Peptide text beside a SMILES is read from it. PEG6 = NCCOCCOCCOCCOCCOCCOCCC(=O)O; R8 = C=CCCCCCC[C@@](C)(N)C(=O)O; S5 = C=CCCC[C@](C)(N)C(=O)O

System: p53 target genes in HCT116 cells
Assay: RNA-Seq / GSEA in HCT116 cells, p53 pathway genes
Assay type: cell-based, human
Procedure: To circumvent this issue, we used a well-tested electroporation protocol to enhance cell uptake of the bivalent peptide (see Methods). HCT116 cells were evaluated either in the presence of bivalent peptide or vehicle (water), with or without Nutlin-3a (FIG. 3A, B). Nutlin-3a is a small molecule that activates and stabilizes p53 by inhibiting MDM2, a repressor of p53. […] After 3 h Nutlin-3a treatment (or DMSO control, ±bivalent peptide), nuclear RNA was isolated and biological replicate RNA-Seq libraries were prepared (FIG. 9A; Table 1).
A confounding issue with these experiments was that cellular uptake of the bivalent peptide could not be accurately measured and could potentially vary from experiment-to-experiment. To assess this possibility more thoroughly, we completed an additional round of RNA-Seq experiments in control vs. Nutlin-treated HCT116 cells (FIG. 9B; Table 1). These additional experiments (RNA-Seq experiment 2) were completed with a slightly modified protocol that included treatment in serum-free media as an effort to enhance peptide uptake. Importantly, the data from RNA-Seq experiment 2 (biological triplicate; FIG. 10) were consistent with the first series of biological replicates (RNA-Seq experiment 1; FIG. 3C-E) and in each case, repression of p53-dependent transcription by the bivalent peptide tracked with Nutlin induction levels (FIG. 9CE). Nutlin-induced activation of p53 target genes was inhibited in the presence of the bivalent peptide, providing further evidence that the bivalent peptide blocks p53 response in cells. However, the scope and magnitude of the effect was reduced in this second, independent set of RNA-Seq experiments (e.g. compare FIG. 3C, D & FIG. 10C, D). This broadly consistent but variable magnitude effect can also be seen from RNA-Seq reads at specific p53 target genes (RNA-Seq experiment 1, FIG. 4A, B; RNA-Seq experiment 2, FIG. 4C, D). The overall p53 response to Nutlin-3a was reduced in RNA Seq experiment 2 (GSEA p53 pathway NES=2.76 in RNA-Seq experiment 1 vs. NES=1.59 in RNASeq experiment 2), which therefore reduced the transcriptional impact of the bivalent peptide. However, we cannot rule out variable cellular uptake of the bivalent peptide as a contributing factor.
Electroporation of bivalent peptide into HCT116 cells (RNA-Seq experiment 1): Two 6-well plates (HCT116 cells) were grown to about 80% confluency. Cells were then trypsinized, washed with PBS, and resuspended in 150 μL Neon Buffer R. The cells were then split into two groups: No peptide and 10 μM peptide. The cells were then drawn into a 10 μL Neon pipet tip, electroporated and ejected into 2 mL of McCoy's 5A media without antibiotic. For each experiment, two cell electroporation aliquots were added to media containing either 0.1% DMSO (control) or 10 μM Nutlin-3a (in DMSO, to a final concentration of 0.1%). For wells containing cells electroporated with peptide, an additional 200 nM peptide was added to the well to allow for peptide uptake during the experiment. The 6-well plate was then placed back at 37° C. for 3 hours. After 3 hours, cells were scraped from the plates, transferred to a 15 mL conical vial, pelleted at 1,000×g, and washed in 10 mL phosphate buffered saline (PBS) solution. To isolate the nuclei, cells were resuspended in 10 mL lysis buffer (10 mM Tris-HCl, pH 7.4, 2 mM MgCl2, 3 mM CaCl2), 0.5% NP-40, 10% glycerol) and thoroughly mixed. The nuclei were spun down at 1,000×g for 10 minutes, the lysis buffer was removed, and 1 mL of TRIzol was added. The nuclear RNA was isolated as described in the TRIzol instructions, except an additional phenol/chloroform extraction and chloroform-only extraction were performed to reduce contaminants. RNA was precipitated and washed twice with 75% ethanol to further remove contaminants. The RNA was then converted to cDNA using the High Capacity cDNA kit from Thermo Fisher Scientific. […]

CC[C@H](C)[C@H](NC(=O)[C@H](CC(=O)O)NC(=O)[C@H](CC(=O)O)NC(=O)[C@@H]1CCCN1C(=O)[C@H](CO)NC(=O)[C@H](CC(C)C)NC(=O)CCOCCOCCOCCOCCOCCOCCNC(=O)[C@H](CCCNC(=N)N)NC(=O)[C@H](CCCNC(=N)N)NC(=O)[C@]1(C)CCCC=CCCCCCC[C@@](C)(NC(=O)[C@H](Cc2ccccc2)NC(=O)[C@H](CCCNC(=N)N)NC(=O)[C@H](CCC(=O)O)NC(=O)[C@H](CCC(N)=O)NC(=O)[C@H](CO)NC(=O)[C@H](CCCNC(=N)N)NC(C)=O)C(=O)N[C@@H](CC(=O)O)C(=O)N[C@@H](CC(C)C)C(=O)N[C@@H](Cc2c[nH]c3ccccc23)C(=O)N[C@@H](CCCCN)C(=O)N[C@@H](CCCNC(=N)N)C(=O)N[C@@H](CC(C)C)C(=O)N1)C(=O)N[C@@H](CCC(=O)O)C(=O)N[C@@H](CCC(N)=O)C(=O)N[C@@H](Cc1c[nH]c2ccccc12)C(=O)N[C@@H](Cc1ccccc1)C(=O)N[C@H](C(=O)N[C@@H](CCC(=O)O)C(=O)N[C@@H](CC(=O)O)C(N)=O)[C@@H](C)O [bivalent peptide] (Ac-RSQERF[R8]DLWKRL[S5]RR[PEG6]LSPDDIEQWFTED-NH2; staple 7-14; N-terminus assumed)
GSEA p53 pathway NES, Nutlin response in peptide-treated cells (RNA-Seq experiment 1, +Nutlin): 1.97 | GSEA p53 pathway NES, Nutlin response in peptide-treated cells (RNA-Seq experiment 2, +Nutlin): 0.92 | Nutlin-induced activation of p53 target genes in peptide-treated cells (electroporated 10 μM peptide, Nutlin-3a 10 μM, 3 h, HCT116): diminished | p53 activation by peptide alone (no Nutlin, vs. untreated controls, HCT116): modest p53 activation
